Laboratory results taken from patent US10849864B2, “Combinations and methods for the treatment and/or prevention of fungal infections” (Novan, Inc., priority 2015, dated 2020).
Where a name gives a salt, the structure may show the parent alone.

Tested on: Tricophyton rubrum (ATCC #28188)
Assay: MIC evaluation of individual test materials (Macrodilution Broth Method, Phase I)
Assay type: cell-based
Settings: Trichophyton rubrum, ATCC28188; test material alone; T. rubrum inoculum 1.775 × 10^3 CFU/mL per tube; read-out: Minimum Inhibitory Concentration (MIC) (as product concentration)
Method: The purpose of this study was to evaluate the synergistic in vitro interactions of one drug pair when challenged with Tricophyton rubrum (ATCC #28188).
A minimum inhibitory concentration (MIC) evaluation was performed for each test material versus T. rubrum using modifications of the Macrodilution Broth Method outlined in the CLSI (clinical laboratory standards institute) Document M07-A9: Methods for dilution antimicrobial susceptibility tests for bacteria that grow aerobically, 9th edition. The test materials were terbinafine hydrochloride and Nitricil™ NVN1, which is a NO-releasing diazeniumdiolate-functionalized co-condensed silica from Novan, Inc.
The challenge strain of T. rubrum was exposed to a series of doubling dilutions of each test material. […]
An initial population of T. rubrum was prepared containing approximately 10^3 CFU (colony forming units)/mL in appropriate fungal growth media (RPMI). This initial population density was precisely determined by preparing ten-fold dilutions and plating them on the appropriate solid fungal growth media for colony enumeration. […] Following incubation, the colonies were manually counted to determine the precise number of colonies present in the initial population. […]
The tubes were visually assessed on the basis of turbidity in order to determine fungal growth.

**Q.** `CN(C/C=C/C#CC(C)(C)C)Cc1cccc2ccccc12` [Terbinafine hydrochloride, terbinafine hydrochloride] was tested. Which MIC did it give?
**A.** 0.012 µg/mL
